Assay results taken from US12534444B2, “Treatment of cancer/inhibition of metastasis” (Celex Oncology Innovations Limited, priority 2010, dated 2026).

System: MDA-MB-231 cells
Experiment: Single-cell adhesion assay (SCAMA, detachment negative pressure)
Type: cell-based, human
Description: FIG. 4 is a schematic illustration of the single-cell adhesion measurement apparatus (SCAMA) first described in the paper by Palmer et al. (2008). Human breast cancer cells from the MDA-MB-231 cell line were plated at a density of 2.5×10^4 cells/ml and left to settle in a cell culture dish 401 for 48 hours prior to measurements. Medium was removed and 2 ml of the drug under study was applied for 10 minutes. Adhesion was measured using a glass micropipette 402 connected to a vacuum pump 403 via plastic tubing 404. The tip of the micropipette was drawn to about 20 μm (range, 17-24 μm) tip diameter. The vacuum pump was used to create negative pressure inside a reservoir 405 so that the negative pressure could be applied to the tip of the micropipette by pressing the thumb to the open end of a sealable T-piece 406. […] The pressure was measured using a digital manometer 409 connected to a computer 410 via a RS232 cable 411. Using a micromanipulator 412, the micropipette 402 was positioned on the periphery of a single cell. […] The negative pressure required to detach the cell was recorded on the computer as a pressure spike. The peak of the spike (“detachment negative pressure” (DNP)) was used as a measure of the cell's adhesiveness. Using this technique, several recordings could be made from a single dish within minutes. […] In order to test for the reversibility of a given effect, the pharmacological agent was washed off, fresh medium was added and the plate was incubated for a further 10 minutes prior to re-measurement. Each treatment was carried out on at least two dishes of cells, at least 100 cells per dish were measured, and the experiment was repeated three times (with corresponding controls). In the single cell adhesion experiments, hypoxia was induced chemically by application of hydrogen peroxide (1-500 μM) for 24 hours.

Structure (SMILES): COc1ccccc1OCC(O)CN1CCN(CC(=O)Nc2c(C)cccc2C)CC1 (centres unmarked) [ranolazine]
- ADHESION (Hypoxia (chemically induced, hydrogen peroxide 24 hours), 0.1 μM): increased
- ADHESION (Hypoxia (chemically induced, hydrogen peroxide 24 hours), 1 μM): continued to increase
- ADHESION (Hypoxia (chemically induced, hydrogen peroxide 24 hours), 1 μM, listed as RANOLAZINE): increased
- ADHESION (Hypoxia (chemically induced, hydrogen peroxide 24 hours), 10 μM): continued to increase
- ADHESION (Hypoxia (chemically induced, hydrogen peroxide 24 hours), 10 μM, listed as RANOLAZINE): decreased
- ADHESION (Hypoxia (chemically induced, hydrogen peroxide 24 hours), 100 μM): continued to increase
- ADHESION (Hypoxia (chemically induced, hydrogen peroxide 24 hours), 100 μM, listed as RANOLAZINE): no benefit
- ADHESION (Normoxia, 0.1 μM): no effect
- ADHESION (Normoxia, 0.5 μM): increased
- ADHESION (Normoxia, 1 μM): increased
- ADHESION (Normoxia, 10 μM): increased
- ADHESION (Normoxia, 20 μM): increased
- ADHESION (Normoxia, 100 μM): increased
- effect on adhesion in hypoxia compared with normoxia (before convergence at the higher drug concentrations): approximately 10 fold
